Experimental data from US8487108B2, “Piperidinyl carbamate intermediates for the synthesis of aspartic protease inhibitors” (Vitae Pharmaceuticals, Inc., priority 2005, dated 2013).
pIC50: −log10 of the molar value.

What was measured:
[1] = target: T1, plasma renin activity (PRA) in pooled mixed-gender human plasma (Homo sapiens, UniProt P00797); experiment: Plasma renin activity (PRA) assay in human plasma; type: biochemical
T1 construct: pooled mixed-gender human plasma stabilized with EDTA; from tissue; host or cells: pooled mixed-gender human plasma (EDTA)
T1 sequence (P00797 67-406): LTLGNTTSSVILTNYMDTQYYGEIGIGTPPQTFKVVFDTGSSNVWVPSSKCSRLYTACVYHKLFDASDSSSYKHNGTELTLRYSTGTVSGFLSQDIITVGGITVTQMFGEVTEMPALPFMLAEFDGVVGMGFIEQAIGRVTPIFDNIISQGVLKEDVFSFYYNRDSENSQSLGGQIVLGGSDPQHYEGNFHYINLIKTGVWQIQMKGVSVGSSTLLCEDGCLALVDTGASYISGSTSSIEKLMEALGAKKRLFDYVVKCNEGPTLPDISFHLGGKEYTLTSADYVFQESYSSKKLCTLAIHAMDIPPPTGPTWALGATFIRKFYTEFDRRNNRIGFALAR
Description: Incubations mixtures contain in the final volume of 250 μL 95.5 mM N,N-bis(2-hydroxyethyl)-2-aminoethanesulfonic acid, pH 7.0, 8 mM EDTA, 0.1 mM neomycin sulfate, 1 mg/mL sodium azide, 1 mM phenylmethanesulfonyl fluoride, 2% DMSO and 87.3% of pooled mixed-gender human plasma stabilized with EDTA. For plasma batches with low PRA (less than 1 ng/ml/hr) ˜2 pM of recombinant human renin is added to achieve PRA of 3-4 ng/ml/hr. The cleavage of endogenous angiotensinogen in plasma is carried out at 37° C. for 90 min and the product angiotensin I is measured by competitive radioimmunoassay using DiaSorin PRA kit.

[2] = target: T2, trypsin-activated recombinant human renin (Homo sapiens, UniProt P00797); experiment: Renin fluorescence assay (internally quenched peptide substrate); type: biochemical
T2 sequence (P00797 67-406): T1 sequence (P00797 67-406)
Method in brief: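 Cleavage of an angiotensinogen-derived DABCYL-quenched peptide by trypsin-activated recombinant human renin (0.2-2 nM final) in 50 mM BES, 150 mM NaCl, 0.25 mg/mL BSA, pH 7.0; compounds 10 μM to 1 nM final. Fluorescence (ex 340/em 495 nm) followed 60-360 min at rt; linear-slope rates give percent inhibition versus uninhibited control.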

[3] = test system: double transgenic rats engineered to express human renin and human angiotensinogen; experiment: Blood pressure by telemetry in double transgenic rats; type: in vivo, rat; settings: dosage of 10 mg/kg, oral
Description: Double Transgenic Rats: The efficacy of the renin inhibitors can also evaluated in vivo in double transgenic rats engineered to express human renin and human angiotensinogen (Bohlender J, Fukamizu A, Lippoldt A, Nomura T, Dietz R, Menard J, Murakami K, Luft F C, Ganten D. High human renin hypertension in transgenic rats. Hypertension 1997, 29, 428-434).
(§1) Experiments were conducted in 6-week-old double transgenic rats (dTGRs). The model has been described in detail earlier. […] The human angiotensinogen construct made up the entire human angiotensinogen gene (5 exons and 4 introns), with 1.3 kB of 5′-flanking and 2.4 kB of 3′-flanking sequences. The rats were purchased from RCC Ltd (Füllinsdorf, Switzerland). Radio telemetry transmitters were surgically implanted at 4 weeks of age. The telemetry system provided 24-h recordings of systolic, mean, diastolic arterial pressure (SAP, MAP, DAP, respectively) and heart rate (HR). Beginning on day 42, animals were transferred to telemetry cages. A 24 h telemetry reading was obtained. Rats were then dosed orally on the following 4 consecutive days (days 43-46). The rats were monitored continuously and allowed free access to standard 0.3%-sodium rat chow and drinking water.

[4] = Plasma concentration in double transgenic rats after oral administration; type: in vivo, rat; settings: 10 mg/kg oral
Description: FIG. 2 is a plot showing mean plasma concentrations of compound L-6a in transgenic rats over time following oral administration of 10 mg/kg of compound L-6a.
as §1

Molecule `CN[C@H](CNC(=O)N1CCC[C@@H]([C@@H](OCCNC(=O)OC)c2cc(Cl)ccc2C)C1)C[C@H]1CCCOC1` [XL-8, methyl 2-((R)-(5-chloro-2-methylphenyl)((R)-1-((S)-2-(methylamino)-3-((R)-tetrahydro-2H-pyran-3-yl)propylcarbamoyl)piperidin-3-yl)methoxy)ethylcarbamate] has a pIC50 ([1]; compounds of Formula (XL)) of over 8.00 and a pIC50 ([2]; compounds of Formula (XL)) of over 9.00.

In the case of `CN[C@H](CNC(=O)N1CCC[C@@H]([C@@H](OCCNC(=O)OC)c2cccc(Cl)c2)C1)C[C@H]1CCCOC1` [XL-7, methyl 2-((R)-(3-chlorophenyl)((R)-1-((S)-2-(methylamino)-3-((R)-tetrahydro-2H-pyran-3-yl)propylcarbamoyl)piperidin-3-yl)methoxy)ethylcarbamate], the pIC50 ([1]; compounds of Formula (XL)) was over 8.00, the “effect in lowering blood pressures of double transgenic rats” value [3] was “significant effect in lowering blood pressures” and the pIC50 ([2]; compounds of Formula (XL)) was over 9.00.

Molecule `COC(=O)NCCO[C@@H](c1cc(F)ccc1C)[C@@H]1CCCN(C(=O)NC[C@@H](N)C[C@H]2CCCOC2)C1` [XL-6, methyl 2-((R)-((R)-1-((S)-2-amino-3-((R)-tetrahydro-2H-pyran-3-yl)propylcarbamoyl)piperidin-3-yl)(5-fluoro-2-methylphenyl)methoxy)ethylcarbamate] has a pIC50 ([1]; compounds of Formula (XL)) of over 7.30 and a pIC50 ([2]; compounds of Formula (XL)) of over 8.00.

With `CNC[C@H](C[C@H]1CCCOC1)NC(=O)N1CCC[C@@H]([C@@H](OCCNC(=O)OC)c2cccc(Cl)c2)C1` [Example L-6a, methyl 2-((R)-(3-chlorophenyl)((R)-1-((S)-1-(methylamino)-3-((R)-tetrahydro-2H-pyran-3-yl)propan-2-ylcarbamoyl)-piperidin-3-yl)methoxy)-ethylcarbamate] the “availability in rat's plasma following oral administration” value [4] was “readily available in rat's plasma”, the metabolic stability [4] was “excellent” and the oral bioavailability [4] was “excellent”. For the same molecule, the “plasma concentration over 24 h period” value ([4]; over 24 h) was “remains relatively high” and the “effect in lowering blood pressures of double transgenic rats” value [3] was “significant effect in lowering blood pressures”.

`COC(=O)NCCO[C@@H](c1cccc(Cl)c1)[C@@H]1CCCN(C(=O)NC[C@@H](N)C[C@H]2CCCOC2)C1` [XL-1, methyl 2-((R)-((R)-1-((S)-2-amino-3-((R)-tetrahydro-2H-pyran-3-yl)propylcarbamoyl)piperidin-3-yl)(3-chlorophenyl)methoxy)ethylcarbamate] showed a pIC50 ([1]; compounds of Formula (XL)) of over 8.00 and a pIC50 ([2]; compounds of Formula (XL)) of over 8.00.

With `COC(=O)NCCO[C@@H](c1cccc(F)c1)[C@@H]1CCCN(C(=O)NC[C@@H](N)C[C@H]2CCCOC2)C1` [XL-2, methyl 2-((R)-((R)-1-((S)-2-amino-3-((R)-tetrahydro-2H-pyran-3-yl)propylcarbamoyl)piperidin-3-yl)(3-fluorophenyl)methoxy)ethylcarbamate] the pIC50 ([1]; compounds of Formula (XL)) was over 7.70 and the pIC50 ([2]; compounds of Formula (XL)) was over 8.00.

In the case of `COC(=O)NCCO[C@@H](c1cc(F)cc(F)c1)[C@@H]1CCCN(C(=O)NC[C@@H](N)C[C@H]2CCCOC2)C1` [XL-4, methyl 2-((R)-((R)-1-((S)-2-amino-3-((R)-tetrahydro-2H-pyran-3-yl)propylcarbamoyl)piperidin-3-yl)(3,5-difluorophenyl)methoxy)ethylcarbamate], the pIC50 ([1]; compounds of Formula (XL)) was over 8.00 and the pIC50 ([2]; compounds of Formula (XL)) was over 8.00.

`COC(=O)NCCO[C@@H](c1cc(F)cc(Cl)c1)[C@@H]1CCCN(C(=O)NC[C@@H](N)C[C@H]2CCCOC2)C1` [XL-3, methyl 2-((R)-((R)-1-((S)-2-amino-3-((R)-tetrahydro-2H-pyran-3-yl)propylcarbamoyl)piperidin-3-yl)(3-chloro-5-fluorophenyl)methoxy)ethylcarbamate] showed a pIC50 ([1]; compounds of Formula (XL)) of over 8.00 and a pIC50 ([2]; compounds of Formula (XL)) of over 8.00.

`COC(=O)NCCO[C@@H](c1cc(Cl)ccc1C)[C@@H]1CCCN(C(=O)NC[C@@H](N)C[C@H]2CCCOC2)C1` [XL-5, methyl 2-((R)-((R)-1-((S)-2-amino-3-((R)-tetrahydro-2H-pyran-3-yl)propylcarbamoyl)piperidin-3-yl)(5-chloro-2-methylphenyl)methoxy)ethylcarbamate] showed a pIC50 ([1]; compounds of Formula (XL)) of over 9.00 and a pIC50 ([2]; compounds of Formula (XL)) of over 9.00.

For `CNC[C@@H](CC1CCCOC1)NC(=O)N1CCC[C@@H]([C@@H](OCCNC(=O)OC)c2cc(F)cc(Cl)c2)C1` (single isomer, unassigned) [Example L-3c], the pIC50 ([1]; compounds of Formula (L)) was over 8.00 and the pIC50 ([2]; compounds of Formula (L)) was over 8.00.

Molecule `CNC[C@H](CC1CCOCC1)NC(=O)N1CCC[C@@H]([C@@H](OCCNC(=O)OC)c2cccc(C)c2)C1` [I*-20a, methyl 2-((R)-((R)-1-((S)-1-(methylamino)-3-(tetrahydro-2H-pyran-4-yl)propan-2-ylcarbamoyl)piperidin-3-yl)(m-tolyl)methoxy)ethylcarbamate] has a pIC50 ([2]; compounds I*) of over 7.30.

`CNC[C@H](C[C@H]1CCCCOC1)NC(=O)N1CCC[C@@H]([C@@H](OCCNC(=O)OC)c2cc(F)cc(F)c2)C1` [I*-113a, methyl 2-((R)-(3,5-difluorophenyl)((R)-1-((S)-1-(methylamino)-3-((R)-oxepan-3-yl)propan-2-ylcarbamoyl)piperidin-3-yl)methoxy)ethylcarbamate] showed a pIC50 ([2]; compounds I*) of over 8.00.

With `CNC[C@@H](CC1CCCOC1)NC(=O)N1CCC[C@@H]([C@@H](OCCNC(=O)OC)c2cc(F)cc(Cl)c2)C1` (single isomer, unassigned) [Example L-3d] the pIC50 ([1]; compounds of Formula (L)) was over 7.70 and the pIC50 ([2]; compounds of Formula (L)) was over 7.70.
